Assay results reported in publication PMC5571739 (Journal of neuro-oncology, 2016).
“And” between values parts separate entries of the source, which are not always exact repeats. Equal values may be shown once.

Tests used:
[1] = Plasma pharmacokinetics of RO4929097 alone and with bevacizumab; assay type: in vivo, human; details: for AUC24: plasma, geometric mean; for AUC24 Δ% / Cmax Δ%: day 15 with bevacizumab vs day 1 alone
[2] = tested on: patients with recurrent malignant gliomas
[3] = tested on: hepatic CYP450 enzyme system; details: cited from earlier work

| Compound | AUC24 ([1]; 5 mg oral, day 1, no concurrent bevacizumab) | AUC24 ([1]; 5 mg oral, day 15, concurrent bevacizumab) | AUC24 Δ% ([1]; 5 mg) [%] | AUC24 ([1]; 10 mg oral, day 1, no concurrent bevacizumab) | AUC24 Δ% ([1]; 10 mg) [%] | Cmax Δ% ([1]; 10 mg) [%] | AUC24 ([1]; 20 mg oral, day 1, no concurrent bevacizumab) | AUC24 ([1]; 20 mg oral, day 15, concurrent bevacizumab) | AUC24 Δ% ([1]; 20 mg) [%] | Cmax Δ% ([1]; 20 mg) [%] | Dose proportionality of mean Cmax ([1]; escalation of the dose from 5 to 20 mg) | Definitive maximum tolerated dose ([2]; in combination with bevacizumab, drug production halted) | Recommended phase II dose ([2]; orally 3 days on/4 days off each week in combination with bevacizumab) [mg/kg] | Substrate or modulator of hepatic CYP450 enzyme system [3] |
| --- | --- | --- | --- | --- | --- | --- | --- | --- | --- | --- | --- | --- | --- | --- |
| CC(C)(C(=O)NCC(F)(F)C(F)(F)F)C(=O)N[C@@H]1C(=O)Nc2ccccc2-c2ccccc21 [RO4929097] | 1,215 ng●h/mL | 1,212 ng●h/mL | −0.2 | 2,385 ± 606 ng●h/mL and 2,385 ng●h/mL | −1.5 | 7.0 | 2,232 ± 781 ng●h/mL and 2,232 ng●h/mL | 2,555 ng●h/mL | 14.5 | 1.9 | increased less than proportionately | not identified | 10 | – |
| Bevacizumab: monoclonal antibody directed against vascular endothelial growth factor | – | – | – | – | – | – | – | – | – | – | – | – | – | not a substrate or modulator |
